# Experimental data published in PubChem BioAssay AID248 (DTP/NCI, 2004).
# Values joined by “and” are separate entries in the source; they are usually repeats but may differ in a detail not shown here. Equal entries are not always repeated. Toxic doses and inconclusive results are not listed.
# Test system: L1210 leukemia ip in BDF1 mice, survival T/C
# Assay: NCI In Vivo Anticancer Drug Screen. Data for tumor model L1210 Leukemia (intraperitoneal) in B6D2F1 (BDF1) mice
# Settings: endpoint: mean survival time, higher = longer survival
# How it was run: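 Mice bearing the transplanted tumor received compound or vehicle. Survival of the treated group was divided by that of the vehicle-treated control group to give the ratio.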
# [1] = dose: 100.0 mg/kg/injection, schedule: Q01DX009 (ip), vehicle: Klucel (hydroxypropylcellulose) (HPC)
# [2] = dose: 100.0 mg/kg/injection, schedule: Q04DX003 (ip), vehicle: Klucel (hydroxypropylcellulose) (HPC)
# [3] = dose: 200.0 mg/kg/injection, schedule: Q01DX009 (ip), vehicle: Klucel (hydroxypropylcellulose) (HPC)
# [4] = dose: 200.0 mg/kg/injection, schedule: Q04DX003 (ip), vehicle: Klucel (hydroxypropylcellulose) (HPC)
# [5] = dose: 400.0 mg/kg/injection, schedule: Q01DX009 (ip), vehicle: Klucel (hydroxypropylcellulose) (HPC)
# [6] = dose: 400.0 mg/kg/injection, schedule: Q04DX003 (ip), vehicle: Klucel (hydroxypropylcellulose) (HPC)
# [7] = dose: 100.0 mg/kg/injection, schedule: Q01DX001 (ip), vehicle: carboxymethylcellulose (CMC)
# [8] = dose: 200.0 mg/kg/injection, schedule: Q01DX001 (ip), vehicle: carboxymethylcellulose (CMC)
# [9] = dose: 400.0 mg/kg/injection, schedule: Q01DX001 (ip), vehicle: carboxymethylcellulose (CMC)
# [10] = dose: 100.0 mg/kg/injection, schedule: Q04DX002 (ip), vehicle: Klucel (hydroxypropylcellulose) (HPC)
# [11] = dose: 200.0 mg/kg/injection, schedule: Q04DX002 (ip), vehicle: Klucel (hydroxypropylcellulose) (HPC)
# [12] = dose: 400.0 mg/kg/injection, schedule: Q04DX002 (ip), vehicle: Klucel (hydroxypropylcellulose) (HPC)
# [13] = dose: 100.0 mg/kg/injection, schedule: Q01DX009 (ip), vehicle: saline
# [14] = dose: 200.0 mg/kg/injection, schedule: Q01DX009 (ip), vehicle: saline
# [15] = dose: 50.0 mg/kg/injection, schedule: Q04DX002 (ip), vehicle: Klucel (hydroxypropylcellulose) (HPC)
# [16] = dose: 100.0 mg/kg/injection, schedule: Q04DX003 (ip), vehicle: saline with Tween-80
# [17] = dose: 200.0 mg/kg/injection, schedule: Q04DX003 (ip), vehicle: saline with Tween-80
# [18] = dose: 400.0 mg/kg/injection, schedule: Q04DX003 (ip), vehicle: saline with Tween-80
# [19] = dose: 50.0 mg/kg/injection, schedule: Q01DX001 (ip), vehicle: carboxymethylcellulose (CMC)
smiles,measurement,setting,value
Cc1ccc2c(c1)SN(CN1C(=O)c3ccccc3C1=O)N2,T/C,[1],103 % of control
same,T/C,[2],94 % of control
same,T/C,[3],93 % of control
same,T/C,[4],96 % of control
same,T/C,[5],90 % of control
same,T/C,[6],91 % of control
Clc1cc(Cl)c2nc(Cl)c3ccccc3c2c1,T/C,[1],100 % of control
same,T/C,[2],95 % of control
same,T/C,[3],92 % of control
same,T/C,[4],90 % of control
same,T/C,[5],100 % of control
same,T/C,[6],93 % of control
COc1ccc2ccccc2c1Br,T/C,[7],98 % of control
same,T/C,[8],98 % of control
same,T/C,[9],98 % of control
O=C(Nc1ccccc1F)OCCOc1ccc(-c2ccccc2)cc1,T/C,[1],96 % of control
same,T/C,[3],95 % of control
same,T/C,[5],98 % of control
O=C1c2nc3ccccc3nc2C(=O)N1OS(=O)(=O)c1ccccc1,T/C,[1],92 % of control
same,T/C,[3],105 % of control
same,T/C,[5],100 % of control
Nc1ccc(C(=O)O)c(F)c1,T/C,[10],101 % of control
same,T/C,[11],104 % of control
same,T/C,[12],101 % of control
O=C(O)c1cscc1Cc1cccs1,T/C,"dose: 100.0 mg/kg/injection, schedule: Q01DX001 (ip), vehicle: saline with Tween-80",96 % of control
same,T/C,"dose: 200.0 mg/kg/injection, schedule: Q01DX001 (ip), vehicle: saline with Tween-80",96 % of control
same,T/C,"dose: 400.0 mg/kg/injection, schedule: Q01DX001 (ip), vehicle: saline with Tween-80",103 % of control
CS/C(N)=N\N=C\c1ccccn1,T/C,"dose: 12.5 mg/kg/injection, schedule: Q01DX001 (ip), vehicle: carboxymethylcellulose (CMC)",104 % of control
same,T/C,"dose: 25.0 mg/kg/injection, schedule: Q01DX001 (ip), vehicle: carboxymethylcellulose (CMC)",103 % of control
CNP1(N(C)C)=NP(NC)(N(C)C)=NP(NC)(N(C)C)=N1 (configuration not stated),T/C,"dose: 50.0 mg/kg/injection, schedule: Q01DX009 (ip), vehicle: saline",102 % of control
same,T/C,[13],100 % of control
same,T/C,[14],94 % of control
CCCCCCCCN1CCCC(OC(=O)N(C)C)C1 (configuration not stated),T/C,"dose: 25.0 mg/kg/injection, schedule: Q04DX002 (ip), vehicle: saline",106 % of control
same,T/C,"dose: 50.0 mg/kg/injection, schedule: Q04DX002 (ip), vehicle: saline",95 % of control
same,T/C,"dose: 100.0 mg/kg/injection, schedule: Q04DX002 (ip), vehicle: saline",112 % of control
[O-]c1c[n+](-c2ccc(Cl)cc2Cl)no1,T/C,[15],100 % of control
same,T/C,[1],100 % of control
same,T/C,[10],106 % of control
same,T/C,[11],103 % of control
CCCC(CCC)(C(N)=O)C(=O)O,T/C,[13],102 % of control
same,T/C,[14],100 % of control
same,T/C,"dose: 400.0 mg/kg/injection, schedule: Q01DX009 (ip), vehicle: saline",92 % of control
c1cc2c3c(cccc3c1)-c1nc3ccccc3nc1-2,T/C,"dose: 50.0 mg/kg/injection, schedule: Q01DX Z (ip), vehicle: methylcellulose (MC)",100 % of control
same,T/C,[7],94 % of control
same,T/C,"dose: 100.0 mg/kg/injection, schedule: Q01DX Z (ip), vehicle: methylcellulose (MC)",98 % of control
same,T/C,"dose: 125.0 mg/kg/injection, schedule: Q01DX Z (ip), vehicle: methylcellulose (MC)",102 % of control
same,T/C,[8],100 % of control
same,T/C,[9],88 % of control
CCCCCCCCCCCCC(O)C(O)CCCCCCCC(=O)O (configuration not stated),T/C,[1],94 % of control
same,T/C,[3],93 % of control
same,T/C,[5],93 % of control
COc1ccc(C2CCc3cc4c(cc3/C2=N/O)OCO4)cc1OC (configuration not stated),T/C,"dose: 100.0 mg/kg/injection, schedule: Q01DX009 (ip), vehicle: saline with Tween-80",98 % of control
same,T/C,[16],90 % of control
same,T/C,"dose: 200.0 mg/kg/injection, schedule: Q01DX009 (ip), vehicle: saline with Tween-80",92 % of control
same,T/C,[17],90 % of control
same,T/C,"dose: 400.0 mg/kg/injection, schedule: Q01DX009 (ip), vehicle: saline with Tween-80",105 % of control
same,T/C,[18],91 % of control
Cc1ncc(CSCC(=O)O)c(N)n1,T/C,[2],103 % of control
same,T/C,[4],100 % of control
same,T/C,[6],103 % of control
CCCCCCCCOC(=O)COc1cccc(C)c1,T/C,"dose: 100.0 mg/kg/injection, schedule: Q04DX002 (ip), vehicle: saline with Tween-80",103 % of control
same,T/C,"dose: 200.0 mg/kg/injection, schedule: Q04DX002 (ip), vehicle: saline with Tween-80",100 % of control
same,T/C,"dose: 400.0 mg/kg/injection, schedule: Q04DX002 (ip), vehicle: saline with Tween-80",100 % of control
CCC(C)C(C=NCC(CCN(C)C)(c1ccc2ccccc2c1)C(C)CC)(CCN(C)C)c1ccc2ccccc2c1 (configuration not stated),T/C,"dose: 12.5 mg/kg/injection, schedule: Q04DX002 (ip), vehicle: saline + alcohol",92 % of control
same,T/C,"dose: 12.5 mg/kg/injection, schedule: Q04DX002 (ip), vehicle: saline with Tween-80",92 % of control
same,T/C,"dose: 25.0 mg/kg/injection, schedule: Q04DX002 (ip), vehicle: saline + alcohol",92 % of control
CCOC(=O)c1c[nH]c2cc([N+](=O)[O-])ccc2c1=O,T/C,"dose: 25.0 mg/kg/injection, schedule: Q04DX003 (ip), vehicle: saline with Tween-80",91 % of control
same,T/C,"dose: 50.0 mg/kg/injection, schedule: Q04DX003 (ip), vehicle: saline with Tween-80",86 % of control
CCCc1nc2c(=O)[nH]cnc2o1,T/C,[16],89 % of control
same,T/C,[17],95 % of control
same,T/C,[18],101 % of control
C=C1c2ccccc2N(CC)C1(COc1ccc(Cl)cc1)OC(=O)c1cccc(Cl)c1 (configuration not stated),T/C,[10],100 % of control
same,T/C,[11],95 % of control
same,T/C,[12],110 % of control
O=C1CCCCC(=O)OCCC1,T/C,"dose: 100.0 mg/kg/injection, schedule: Q01DX001 (ip), vehicle: saline",93 % of control
same,T/C,"dose: 200.0 mg/kg/injection, schedule: Q01DX001 (ip), vehicle: saline",98 % of control
same,T/C,"dose: 400.0 mg/kg/injection, schedule: Q01DX001 (ip), vehicle: saline",88 % of control
CN(C)c1ccc(/C=C\c2ccnc3ccccc23)cc1,T/C,"dose: 10.0 mg/kg/injection, schedule: Q01DX Z (ip), vehicle: methylcellulose (MC)",98 % of control
same,T/C,"dose: 18.0 mg/kg/injection, schedule: Q01DX010 (ip), vehicle: saline",93 % of control and 102 % of control
same,T/C,"dose: 27.0 mg/kg/injection, schedule: Q01DX010 (ip), vehicle: saline",95 % of control and 102 % of control
same,T/C,"dose: 40.0 mg/kg/injection, schedule: Q01DX010 (ip), vehicle: saline",101 % of control and 91 % of control
same,T/C,[19],106 % of control
same,T/C,"dose: 60.0 mg/kg/injection, schedule: Q01DX010 (ip), vehicle: saline",86 % of control and 90 % of control
same,T/C,[7],97 % of control
same,T/C,[8],89 % of control
same,T/C,[9],101 % of control
[N-]=[N+]=C1N=CN=C1c1ncn[nH]1,T/C,"dose: 6.0 mg/kg/injection, schedule: Q01DX015 (ip), vehicle: carboxymethylcellulose (CMC)",120 % of control
same,T/C,[19],115 % of control
same,T/C,"dose: 55.0 mg/kg/injection, schedule: Q01DX015 (ip), vehicle: carboxymethylcellulose (CMC)",172 % of control
OC/C(I)=C(I)\C(I)=C(\I)CO,T/C,"dose: 25.0 mg/kg/injection, schedule: Q04DX002 (ip), vehicle: Klucel (hydroxypropylcellulose) (HPC)",90 % of control
same,T/C,[15],90 % of control
same,T/C,[10],94 % of control and 101 % of control
CC(C)=CC=O,T/C,"dose: 100.0 mg/kg/injection, schedule: Q01DX009 (ip), vehicle: saline sonified",97 % of control
same,T/C,"dose: 100.0 mg/kg/injection, schedule: Q04DX003 (ip), vehicle: saline",96 % of control
same,T/C,"dose: 200.0 mg/kg/injection, schedule: Q01DX009 (ip), vehicle: saline sonified",100 % of control
same,T/C,"dose: 200.0 mg/kg/injection, schedule: Q04DX003 (ip), vehicle: saline",97 % of control
same,T/C,"dose: 400.0 mg/kg/injection, schedule: Q04DX003 (ip), vehicle: saline",103 % of control
